# Assay results: US8222417B2, “Compound having 11β-HSD1 inhibitory activity” (Taisho Pharmaceutical Co., Ltd, priority 2007, dated 2012)
# pIC50: −log10 of the molar value. Structures can show the parent of a compound that is named as a salt.
# Target: T1, 11β-HSD1 (Homo sapiens, UniProt P28845)
# T1 construct: human liver microsome (enzyme source, Tissue Transformation Technologies); tissue Tissue Transformation Technologies; host or cells: human liver microsomes
# Test: 11β-HSD1 inhibition test (human liver microsome, HTRF cortisol detection)
# Type: biochemical
# Details: human liver microsome as enzyme source; cortisone 100 nM; 20° C., 80 minutes; generated cortisol quantified by HTRF
# Description: Test Example [11β-HSD1 Inhibition Test]
# Test Compounds were Evaluated as Follows.
# 11β-HSD1 enzyme reaction was performed in a reaction solution of 100 μl total volume using 96-well polypropylene microplates. The reaction solution was prepared in 30 mM Tris-HCl (pH 7.4)/1 mM EDTA buffer to contain NADPH at a final concentration of 100 μM, G6P at a final concentration of 1 mM, human liver microsome (enzyme source, Tissue Transformation Technologies) at a final concentration of 0.8 μg/ml and 10 μl of a test compound dissolved in DMSO. The enzyme reaction was initiated by addition of cortisone at a final concentration of 100 nM. After incubation at 20° C. for 80 minutes, 10 μl of 1 mM 18β glycyrrhetinic acid, which is a non-specific inhibitor, was added to stop the reaction. Next, the amount of generated cortisol was quantified with a detection kit (Sceti Medical Labo K.K., Japan) according to the HTRF (Homogeneous Time-Resolved Fluorescence) method. This system detects fluorescence resonance energy transfer between europium-labeled anti-cortisol antibody and XL665-labeled cortisol. Upon addition of unlabeled cortisol, binding signals will be attenuated due to competitive reaction. Based on this principle, the amount of cortisol generated by the enzyme reaction was evaluated using a standard curve obtained from samples with known concentrations of cortisol included in the kit. The HTRF reaction was performed in 96-well half area microplates as follows: to 30 μl enzyme reaction solution, an anti-cortisol antibody solution (15 μl) and an XL665-labeled cortisol solution (15 μl) included in the kit were added, and the plates were vortexed at room temperature for 1 hour and further allowed to stand at 20° C. for 1 hour. 40 μl of this reaction solution was transferred to 384-well microplates and measured for its fluorescence. 18β Glycyrrhetinic acid was added to wells before initiation of the enzyme reaction and the amount of cortisol generated in these wells was used as a background level. Test compounds were evaluated using serial dilutions at a common ratio of 3 to calculate their IC50 values, assuming that the amount of cortisol generated in wells containing no test compound was set to 100% enzyme activity.
# T1 sequence (P28845 whole entry): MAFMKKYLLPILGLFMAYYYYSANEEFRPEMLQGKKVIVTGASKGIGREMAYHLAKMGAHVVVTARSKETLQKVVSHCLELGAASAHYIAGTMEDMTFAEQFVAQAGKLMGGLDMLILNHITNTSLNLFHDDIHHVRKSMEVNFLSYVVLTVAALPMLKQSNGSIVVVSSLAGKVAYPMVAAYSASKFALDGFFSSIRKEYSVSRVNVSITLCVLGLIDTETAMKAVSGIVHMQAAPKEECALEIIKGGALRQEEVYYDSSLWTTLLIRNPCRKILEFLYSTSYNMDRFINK
row,SMILES,pIC50
1,"O=C(N[C@H]1C2CC3CC1C[C@](O)(C3)C2)N1CCCc2c(F)cccc21 [Compound 1, 5-fluoro-N-(E-1-hydroxyadamantan-4-yl)-3,4-dihydroquinoline-1(2H)-carboxamide]",9.00
2,"O=C(N[C@H]1C2CC3CC1C[C@](O)(C3)C2)N1CCCc2cc(F)ccc21 [Compound 2, 6-fluoro-N-(E-1-hydroxyadamantan-4-yl)-3,4-dihydroquinoline-1(2H)-carboxamide]",9.05
3,"O=C(N[C@H]1C2CC3CC1C[C@](O)(C3)C2)N1CCCc2ccc(F)cc21 [Compound 3, 7-fluoro-N-(E-1-hydroxyadamantan-4-yl)-3,4-dihydroquinoline-1(2H)-carboxamide]",9.00
4,"O=C(N[C@H]1C2CC3CC1C[C@](O)(C3)C2)N1CCCc2cccc(F)c21 [Compound 4, 8-fluoro-N-(E-1-hydroxyadamantan-4-yl)-3,4-dihydroquinoline-1(2H)-carboxamide]",8.96
5,"COc1ccc2c(c1)N(C(=O)N[C@H]1C3CC4CC1C[C@](O)(C4)C3)CCC2 [Compound 5, N-(E-1-hydroxyadamantan-4-yl)-7-methoxy-3,4-dihydroquinoline-1(2H)-carboxamide]",8.92
6,"Cc1ccc2c(c1)N(C(=O)N[C@H]1C3CC4CC1C[C@](O)(C4)C3)CCC2 [Compound 6, N-(E-1-hydroxyadamantan-4-yl)-7-methyl-3,4-dihydroquinoline-1(2H)-carboxamide]",9.22
7,"N#Cc1ccc2c(c1)CCCN2C(=O)N[C@H]1C2CC3CC1C[C@](O)(C3)C2 [Compound 7, 6-cyano-N-(E-1-hydroxyadamantan-4-yl)-3,4-dihydroquinoline-1(2H)-carboxamide]",8.55
8,"CO[C@]12CC3CC(C1)[C@@H](NC(=O)N1CCCc4ccccc41)C(C3)C2 [Compound 8, N-(E-1-methoxyadamantan-4-yl)-3,4-dihydroquinoline-1(2H)-carboxamide]",9.05
9,"O=C(NC1C2CC3CC1CC(C(=O)O)(C3)C2)N1CCCc2ccccc21 (stereo not drawn) [Compound 10b, E-4-[(3,4-dihydroquinolin-1(2H)-ylcarbonyl)amino]adamantane-1-carboxylic acid]",7.76
10,"NC(=O)C12CC3CC(C1)C(NC(=O)N1CCCc4ccccc41)C(C3)C2 (stereo not drawn) [Compound 11b, N-(E-5-carbamoyladamantan-2-yl)-3,4-dihydroquinoline-1(2H)-carboxamide]",9.10
11,"O=C(N[C@H]1C2CC3CC1C[C@](F)(C3)C2)N1CCCc2ccccc21 [Compound 12, N-(E-1-fluoroadamantan-4-yl)-3,4-dihydroquinoline-1(2H)-carboxamide]",9.00
12,"O=C(N[C@H]1C2CC3CC1C[C@](O)(C3)C2)N1CCCCc2ccccc21 [Compound 13, N-(E-1-hydroxyadamantan-4-yl)-2,3,4,5-tetrahydro-1H-1-benzoazepine-1-carboxamide]",8.92
13,"CC1(C)CCN(C(=O)N[C@H]2C3CC4CC2C[C@](O)(C4)C3)c2ccccc21 [Compound 14, N-(E-1-hydroxyadamantan-4-yl)-4,4-dimethyl-3,4-dihydroquinoline-1(2H)-carboxamide]",8.70
14,"O=C(N[C@H]1C2CC3CC1C[C@](O)(C3)C2)N1CCOc2ccccc21 [Compound 16, N-(E-1-hydroxyadamantan-4-yl)-2,3-dihydro-4H-1,4-benzoxazine 4-carboxamide]",8.82
15,"Cc1ccc2c(c1)N(C(=O)N[C@H]1C3CC4CC1C[C@](O)(C4)C3)CCO2 [Compound 17, N-(E-1-hydroxyadamantan-4-yl)-6-methyl-2,3-dihydro-4H-1,4-benzoxazine 4-carboxamide]",9.10
16,"O=C(OC1C2CC3CC1CC(O)(C3)C2)N1CCCc2ccccc21 (stereo not drawn) [Compound 18b, E-5-hydroxyadamantan-2-yl 3,4-dihydroquinoline-1(2H)-carboxylate]",9.05
17,"O=C(N[C@H]1C2CC3CC1C[C@](O)(C3)C2)N1CCOc2ccc(F)cc21 [Compound 19, 6-fluoro-N-(E-1-hydroxyadamantan-4-yl)-2,3-dihydro-4H-1,4-benzoxazine 4-carboxamide]",8.46
18,"COC(=O)c1ccc2c(c1)N(C(=O)N[C@H]1C3CC4CC1C[C@](O)(C4)C3)CCO2 [Compound 20, methyl 4-[(E-5-hydroxyadamantan-2-yl)carbamoyl]-3,4-dihydro-2H-1,4-benzoxazine-6-carboxylate]",8.17

row,SMILES,pIC50
1,"Cc1ccc2c(c1)OCCN2C(=O)N[C@H]1C2CC3CC1C[C@](O)(C3)C2 [Compound 23, N-(E-5-hydroxyadamantan-2-yl)-7-methyl-2,3-dihydro-4H-1,4-benzoxazine-4-carboxamide]",8.96
2,"O=C(N[C@H]1C2CC3CC1C[C@](O)(C3)C2)N1CCOc2cc(F)ccc21 [Compound 24, 7-fluoro-N-(E-5-hydroxyadamantan-2-yl)-2,3-dihydro-4H-1,4-benzoxazine-4-carboxamide]",8.96
3,"Cc1cccc2c1N(C(=O)N[C@H]1C3CC4CC1C[C@](O)(C4)C3)CCO2 [Compound 25, N-(E-5-hydroxyadamantan-2-yl)-5-methyl-2,3-dihydro-4H-1,4-benzoxazine-4-carboxamide]",8.96
4,"O=C(N[C@H]1C2CC3CC1C[C@](O)(C3)C2)N1CCOc2ccc(C(F)(F)F)cc21 [Compound 26, N-(E-5-hydroxyadamantan-2-yl)-6-(trifluoromethyl)-2,3-dihydro-4H-1,4-benzoxazine-4-carboxamide]",8.47
5,"O=C(N[C@H]1C2CC3CC1C[C@](O)(C3)C2)N1CCSc2ccccc21 [Compound 27, N-(E-5-hydroxyadamantan-2-yl)-2,3-dihydro-4H-1,4-benzothiazine-4-carboxamide]",9.15
6,"O=C(N[C@H]1C2CC3CC1C[C@](O)(C3)C2)N1CCNc2ccccc21 [Compound 32, N-(E-5-hydroxyadamantan-2-yl)-3,4-dihydroquinoxaline-1(2H)-carboxamide hydrochloride]",8.85
7,"CN1CCN(C(=O)N[C@H]2C3CC4CC2C[C@](O)(C4)C3)c2ccccc21 [Compound 33, N-(E-5-hydroxyadamantan-2-yl)-4-methyl-3,4-dihydroquinoxaline-1(2H)-carboxamide hydrochloride]",8.85
8,"O=C(NC1C2CC3CC(C2)CC1C3)N1CCOc2ccccc21 (stereo not drawn) [Compound 34, N-adamantan-2-yl-2,3-dihydro-4H-1,4-benzoxazine-4-carboxamide]",8.96
9,"NC(=O)[C@]12CC3CC(C1)[C@@H](NC(=O)N1CCOc4ccccc41)C(C3)C2 [Compound 37b, N-[E-5-carbamoyladamantan-2-yl]-2,3-dihydro-4H-1,4-benzoxazine-4-carboxamide]",9.22
10,"NC(=O)[C@]12CC3CC(C1)[C@@H](NC(=O)N1CCOc4ccc(F)cc41)C(C3)C2 [Compound 38, N-(E-5-carbamoyladamantan-2-yl)-6-fluoro-2,3-dihydro-4H-1,4-benzoxazine-4-carboxamide]",9.22
11,"Cc1ccc2c(c1)N(C(=O)N[C@H]1C3CC4CC1C[C@](C(N)=O)(C4)C3)CCO2 [Compound 39, N-(E-5-carbamoyladamantan-2-yl)-6-methyl-2,3-dihydro-4H-1,4-benzoxazine-4-carboxamide]",9.22
12,"CO[C@]12CC3CC(C1)[C@@H](NC(=O)N1CCOc4ccccc41)C(C3)C2 [Compound 40, N-(E-1-methoxyadamantan-4-yl)-2,3-dihydro-4H-1,4-benzoxazine-4-carboxamide]",8.96
13,"CS(=O)(=O)[C@]12CC3CC(C1)[C@@H](NC(=O)N1CCOc4ccccc41)C(C3)C2 [Compound 41, N-(E-1-methylsulfonyladamantan-4-yl)-2,3-dihydro-4H-1,4-benzoxazine-4-carboxamide]",7.46
14,"O=C(OC1C2CC3CC1CC(O)(C3)C2)N1CCOc2ccccc21 (stereo not drawn) [Compound 42b, E-5-hydroxyadamantan-2-yl 2,3-dihydro-4H-1,4-benzoxazine-4-carboxylate]",8.34
15,"Cc1ccc2c(c1)N(C(=O)OC1C3CC4CC1CC(O)(C4)C3)CCO2 (stereo not drawn) [Compound 43b, E-5-hydroxyadamantan-2-yl 6-methyl-2,3-dihydro-4H-1,4-benzoxazine-4-carboxylate]",8.49
16,"O=C(OC1C2CC3CC1CC(O)(C3)C2)N1CCOc2ccc(F)cc21 (stereo not drawn) [Compound 44b, E-5-hydroxyadamantan-2-yl 6-fluoro-2,3-dihydro-4H-1,4-benzoxazine-4-carboxylate]",8.02
17,"O=C(N[C@H]1C2CC3CC1C[C@](O)(C3)C2)N1CCCc2ccccc21 [Compound A-1, N-[E-1-hydroxyadamantan-4-yl]-3,4-dihydroquinoline-1(2H)-carboxamide]",9.15
18,"O=C(N[C@H]1C2CC3CC1C[C@](O)(C3)C2)N1CCCc2cc(Cl)ccc21 [Compound A-2, 6-chloro-N-[E-1-hydroxyadamantan-4-yl]-3,4-dihydroquinoline-1(2H)-carboxamide]",9.05
